Experimental data: patent US20080004290A1, “Anti-Cancer Agents” (THE UNIVERSITY OF QUEENSLAND, priority 2003, published 2008)
Read-outs that look alike come from different tables or passages of the source.

Experiments:
Format in all cases: cell-based, human
[1] = test system: NFF, neonatal foreskin fibroblasts; assay: Cell survival assay (clonogenic survival, SRB), normal cells
Summary of the method: (§1)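 Cells (5×10^3/well, RPMI 1640 with 10% FCS) treated 24 h with compound at 0.01-10 μg/mL, then washed and grown 72 h drug-free at 37 °C, 5% CO2. Survival read by SRB staining after methylated-spirit fixation, absorbance 564 nm.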

MM96L melanoma cells = assay: Cell survival assay (clonogenic survival, SRB)
Summary of the method: as §1

[2] = test system: CI-80-13S ovarian cancer cells; assay: Cell survival assay (SRB); settings: Table 10, standard deviations in parentheses, read-out: Cell line IC50 (μM) C18013S
Description: (§2) Cell Lines and Culture Medium. All cell lines used in this study have been described previously (Parsons et al., 1986; Todaro et al., 1980; Glenn et al., 2004). All cell lines were cultured in 10% heat-inactivated foetal calf serum (CSL, Australia) in RPMI 1640 medium supplemented with 100 U/mL penicillin, 100 μg/mL streptomycin, and 3 mM HEPES at 5% CO2, 99% humidity at 37° C. Primary human fibroblasts were obtained from neonatal foreskins and cultured in the above medium. Routine mycoplasma tests were performed using Hoechst stain^i and were always negative.
(§3) Cell Survival Assay. Cells were plated into 96-well microtitre plates at 5×10^3 cells/well, and allowed to adhere overnight. Test compounds were added to culture medium at the indicated concentrations, and plates incubated in the above conditions for 24 hours. Following this incubation period, compounds and media were removed, and replaced with fresh culture medium. Cells were then grown for a further 72 hours before assay using sulforhodamine B (SRB; Sigma, St. Louis, Mo.) as previously described. Briefly, the culture medium was removed from the 96-well microtitre plates and the plates washed twice with phosphate buffered saline (PBS), before the cells were fixed with methylated spirits for 15 minutes. The plates were then rinsed with tap water and the fixed cells stained with 50 μL/well of SRB solution (0.4% sulforhodamine B (w/v) in 1% (v/v) acetic acid) over a period of 1 hour. The SRB solution was then removed from the wells and the plates rapidly washed two times with 1% (v/v) acetic acid. Protein bound dye was then solubilised with the addition of 100 μL of 10 mM unbuffered Tris, and incubated for 15 min at 25° C. Plates were then read at 564 nm on a VERSA max tunable microplate reader (Molecular Devices, Sunnyvale, Calif.).
(§4) For comparison their results are also shown for MM96L and NFF cell lines.

DO4 melanoma cells = assay: Cell survival assay (SRB); settings: Table 10, standard deviations in parentheses, read-out: Cell line IC50 (μM) DO4
Description: as §2, §3, §4

[3] = test system: DU145 prostate cancer cells; assay: Cell survival assay (SRB); settings: Table 10, standard deviations in parentheses, read-out: Cell line IC50 (μM) DU145
Description: as §2, §3, §4

JAM ovarian cancer cells = assay: Cell survival assay (SRB); settings: Table 10, standard deviations in parentheses, read-out: Cell line IC50 (μM) JAM
Description: as §2, §3, §4

[4] = test system: MCF-7 breast cancer cells; assay: Cell survival assay (SRB); settings: Table 10, standard deviations in parentheses, read-out: Cell line IC50 (μM) MCF7
Description: as §2, §3, §4

SkMel28 melanoma cells = assay: Cell survival assay (SRB); settings: Table 10, standard deviations in parentheses, read-out: Cell line IC50 (μM) SkMel
Description: as §2, §3, §4

p21^WAF1/Cip1 (CDKN1A) = assay: Induction of p21 expression (semi-quantitative RT-PCR) in MM96L cells; settings: MM96L melanoma cells, 10 μg/ml, after 16 hrs treatment
Description: Induction of p21 Expression. It has been postulated that histone acetylation is associated with activation of gene transcription. […] Possibly the best characterised gene to be induced following exposure to different HDAC inhibitors is that of the cyclin-dependent kinase inhibitor p21^WAF1/Cip1, which blocks cyclin-dependent kinase activity thereby causing cell-cycle arrest in G1. HDAC inhibitors are thought to act directly on the CDKN1A promoter rather than an upstream target. The HDAC inhibitor SAHA induces accumulation of acetylated histones in the chromatin associated with the CDKN1A gene, and this correlates with the observed increase in transcription. […]
Cell Treatment and Total RNA Isolation. […] RNA was analysed for sufficient quality by formamide agarose gel electrophoresis, and quantified by spectrophotometry.
p21 Expression. The semi-quantitative analysis of mRNA expression of p21^WAF1/Cip1 was carried out by RT-PCR. […] Products were analysed by agarose gel electrophoresis, and visualised on a UV light box. Product intensity was determined to increase linearly with number of cycles and amount of mRNA used, by densitometric analysis using ImageQuaNT 4.2 software (Molecular Dynamics, Sunnyvale, Calif.). Quantitation of p21^WAF1/Cip1 induction was also performed by densitometric analysis using ImageQuaNT 4.2 software following normalisation to GAPDH product intensity.

histone deacetylase = assay: Histone hyperacetylation (histone H4, Triton-acetic acid-urea gel) in MM96L cells; settings: (figure legends: 5 μg/mL, 8 hours)
Description: FIG. 1. Acetylation of Histones. […] Lane 1: untreated. Lane 2: compound of example 22 Lane 3: compound of example 40. Lane 4: TSA. Non-acetylated (A), mono-acetylated (B), di-acetylated (C), tri-acetylated (D) and tetra-acetylated (E) histone H4 are indicated.
FIG. 2. Acetylation of histones MM96L cells were treated with 5 μg/ml of various compound for 8 hr, before harvest and analysis of histone H4 acetylation by Triton-acetic acid-urea gel as previously described (Saito et al., 1991; Qiu et al., 1999). Lane 1: untreated: lane 2: Compound of example 73; lane 3: Compound of example 40; lane 4: TSA. Non-acetylated (A), mono-acetylated (B), di-acetylated (C), tri-acetylated (D) and tetra-acetylated (E) histone H4 are indicated.
Histone Hyperacetylation.

[5] = Homo sapiens, Fibroblast, 24 h, Table 6, 24 hours with compound, further growth, SRB, read-out: IC50 (μM) NFF
[6] = Homo sapiens, Fibroblast, Table 10, standard deviations in parentheses, read-out: Cell line IC50 (μM) NFF
[7] = Homo sapiens, MM96L, 24 h, Table 6, 24 hours with compound, further growth, SRB, read-out: IC50 (μM) MM96L
[8] = Homo sapiens, MM96L, Table 10, standard deviations in parentheses, read-out: Cell line IC50 (μM) MM96L
[9] = Homo sapiens, MM96L, most preferred compounds, exemplary examples, read-out: potency of IC50 against the MM96 melanoma cells
[10] = Table 6, IC50 (NFF)/IC50 (MM96L)
[11] = Table 5, 24 hours with compound, further growth, SRB, read-out: IC50 NFF
[12] = Table 10, standard deviations in parentheses, read-out: Cell line IC50 (μM) NFF
[13] = Table 5, 24 hours with compound, further growth, SRB, read-out: IC50 MM96L
[14] = Table 5, Selectivity Index = IC50 (NFF)/IC50 (MM96L)
[15] = Table 10, standard deviations in parentheses, read-out: Cell line IC50 (μM) MM96L

| Structure (SMILES) | IC50 [1, 5] [µM] | IC50 [1, 6] [µM] | IC50 (MM96L melanoma cells; [7]) [µM] | IC50 (MM96L melanoma cells; [8]) [µM] | Selectivity (MM96L melanoma cells; [10]) | IC50 ([2]; Homo sapiens, C180-13S) [µM] | IC50 (DO4 melanoma cells; Homo sapiens, DO4) [µM] | IC50 ([3]; Homo sapiens, DU-145) [µM] | IC50 (JAM ovarian cancer cells; Homo sapiens) [µM] | IC50 ([4]; Homo sapiens, MCF7) [µM] | IC50 (SkMel28 melanoma cells; Homo sapiens, SK-MEL-28) [µM] | IC50 [1, 11] [µM] | IC50 [1, 12] [µM] | IC50 (MM96L melanoma cells; [15]) [µM] | IC50 [2] [µM] | IC50 (DO4 melanoma cells) [µM] | IC50 [3] [µM] | IC50 (JAM ovarian cancer cells) [µM] | IC50 [4] [µM] | IC50 (SkMel28 melanoma cells) [µM] | further results |
| --- | --- | --- | --- | --- | --- | --- | --- | --- | --- | --- | --- | --- | --- | --- | --- | --- | --- | --- | --- | --- | --- |
| CN(C)c1ccc(C(=O)N[C@@H](CSCCCC(=O)NO)C(=O)NC2CCCc3ccccc32)cc1 (stereo partly drawn) [Example 67] | 2.2 ± 0.2 | 2.2 | 0.2 ± 0.1 | 0.2 | 11 | 1.24 | 2.73 | 1.06 | 1.47 | 0.96 | 2.59 | – | – | – | – | – | – | – | – | – | IC50 (MM96L melanoma cells; [9]): ≤ 0.5 µM; Induction of mRNA for p21^WAF1/Cip1 (p21^WAF1/Cip1 (CDKN1A)): Induction of mRNA for p21^WAF1/Cip1 was seen |
| CN(C)c1ccc(C(=O)N[C@@H](CSCCCC(=O)NO)C(=O)Nc2cccnc2)cc1 [Example 78] | 11 ± 1 | 3.6 | 2.1 ± 0.1 | 0.51 | 5.6 | 1.36 | 2.48 | 1.06 | 2.3 | 0.97 | 2.33 | – | – | – | – | – | – | – | – | – | – |
| CN(C)c1ccc(C(=O)N[C@@H](CSCCCC(=O)NO)C(=O)NCc2ccccc2)cc1 [Example 22] | – | – | – | – | – | – | – | – | – | – | – | 0.35 ± 0.07 | 0.35 | 0.14 | 0.7 | 2 | 0.61 | 1.24 | 0.59 | 3 | IC50 (MM96L melanoma cells; [13]): 0.14 ± 0.09 µM; Selectivity (MM96L melanoma cells; [14]): 2.5; acetylation state of histone H4 (histone deacetylase): hyperacetylation of H4 |
| O=C(CCCSC[C@H](NC(=O)C(O)(c1ccccc1)c1ccccc1)C(=O)NCc1ccccc1)NO [Example 44] | – | – | – | – | – | – | – | – | – | – | – | 9.3 ± 0.7 | 0.8 | 0.2 | 0.6 | 2.1 | 1.7 | 1.8 | 0.7 | 2.5 | IC50 (MM96L melanoma cells; [13]): 1.8 ± 0.2 µM; Selectivity (MM96L melanoma cells; [14]): 5.2 |
| O=C(CCCSC[C@H](NC(=O)c1cc2ccccc2[nH]1)C(=O)NCc1ccccc1)NO [Example 40] | – | – | – | – | – | – | – | – | – | – | – | 0.8 ± 0.2 | 0.8 | 0.13 | 0.4 | 1.3 | 0.4 | 0.75 | 0.84 | 1.7 | IC50 (MM96L melanoma cells; [13]): 0.13 ± 0.09 µM; Selectivity (MM96L melanoma cells; [14]): 6.2; acetylation state of histone H4 (histone deacetylase): hyperacetylation of H4 |
| CN(C)c1ccc(NC(=O)[C@H](CSCCCC(=O)NO)NC(=O)c2ccc(N(C)C)cc2)cc1 [Example 59] | 0.6 ± 0.1 | 0.6 | 0.1 ± 0.1 | 0.1 | 6.0 | 0.39 | 1.05 | 0.33 | 0.43 | 0.39 | 1.09 | – | – | – | – | – | – | – | – | – | IC50 (MM96L melanoma cells; [9]): ≤ 0.5 µM |
| CN(C)c1ccc(C(=O)N[C@@H](CSCCCC(=O)NO)C(=O)Nc2ccc(-c3ccccc3)cc2)cc1 [Example 61] | 0.32 ± 0.05 | 0.32 | 0.17 ± 0.05 | 0.17 | 1.9 | 0.38 | 0.83 | 0.37 | 0.6 | 0.48 | 1.11 | – | – | – | – | – | – | – | – | – | – |
| CN(C)c1ccc(C(=O)N[C@@H](CSCCCC(=O)NO)C(=O)N[C@H]2c3ccccc3C[C@H]2O)cc1 [Example 70] | – | – | – | – | 9.1 | – | – | – | – | – | – | – | 8.2 | 0.9 | 2.5 | 7.12 | 3.76 | 7.22 | 3.3 | 6.14 | IC50 ([1]; Table 6, 24 hours with compound, further growth, SRB, read-out: IC50 (μM) NFF): 8.2 ± 0.8 µM; IC50 (MM96L melanoma cells; Table 6, 24 hours with compound, further growth, SRB, read-out: IC50 (μM) MM96L): 0.9 ± 0.05 µM |
